# Laboratory results published in paper PMC11125126, “Synthesis, Characterisation, and In Vitro Evaluation of Biocompatibility, Antibacterial and Antitumor Activity of Imidazolium Ionic Liquids” (Pharmaceutics, 2024).
# Read-outs that look alike come from different tables or passages of the source.
# Experiments:
# MCF7 cancer cells = assay: Direct cytotoxicity test of IL powders, Alamar blue assay; format: cell-based, human; details: 24 h of incubation
# Procedure: (§1) Cytotoxicity studies on IL powders were carried out using human dermal fibroblast (HDF) cells (Sigma-Aldrich) and a human breast cancer cell line (MCF7). In addition, ILs loaded in PVC polymer substrates were tested for their cytocompatibility and adhesion properties on the HDF. HDF cells were cultured in 75 cm^2 cell culture flask in Dulbecco’s Modified Eagle’s Medium (DMEM) supplemented with 20% Foetal Bovine Serum (FBS), 1% non-essential amino acid (NEAA), antibiotic solution (streptomycin 100 µg/mL and penicillin 100 U/mL, Sigma Aldrich) and 2 mM L-glutamine. MCF7 cells were grown in DMEM with 10% FBS and the same antibiotics as mentioned above. The cells were maintained in a culture at 37 °C, with 5% CO2 and 95% humidity to achieve a confluent layer. Control cells were cultured in a complete medium without any compounds in tissue culture plates. Before biological testing, the samples were sterilised using a UV light for 2 h.
# (§2) A direct cytotoxicity test was used to assess the in vitro cytotoxicity of IL powders. IL powders with different alkyl chains were dissolved in DMEM media to obtain solutions at various concentrations (0.5–1–5 and 10 µg/mL) to determine the best formulation.
# (§3) After 24 h of incubation of IL solutions (200 µL) with seeded cells under specific environmental conditions (T = 37 °C, HR = 95%, CO2 = 5%), cell viability was tested using the Alamar blue assay (AbD Serotec, Milan, Italy) following the manufacturer’s instructions.
# (§4) In summary, each well received a 200 µL aliquot of Alamar Blue^TM diluted 1:10 in phenol red-free medium and was incubated for 4 h at 37 °C, 5% CO2. Following this, 100 µL of the solution was transferred to a 96-well plate for colorimetric analysis. Wells with no cells were included to account for any background interference from the redox indicator. Optical density was immediately measured using a spectrophotometer (Victor X3, Perkin Elmer, Waltham, MA, USA) at 560 and 595 nm wavelengths. The results were presented as a percentage of cell viability compared to that of the control (cells grown on tissue culture plates).
# (§5) Here, the antitumor activity and cytotoxicity of the synthetised imidazolium-based ionic liquids have been determined for breast cancer cells (MCF-7) and healthy human fibroblast (HDF) cells. […] Table 5 reports the IC50 values in µg/mL and µM to make their comparison with the literature data easy.
# HDF cells = assay: as above; format: cell-based, human; details: 24 h of incubation
# Procedure: as §1, §2, §3, §4, §5
# Pseudomonas fluorescens = assay: MIC/MBC by broth dilution, pure ILs; format: cell-based; details: 24 h
# Description: (§6) Within the Di3A (Dipartimento di Agricoltura, Alimentazione e Ambiente, University of Catania, Italy) microbial collection, two Gram-negative strains (Escherichia coli and Pseudomonas fluorescens) and one Gram-positive strain (Listeria monocytogenes) were studied in order to define the potential efficacy of ionic liquids in relation to the different structure of the bacterial cell wall.
# (§7) For the pure ILs, the minimal inhibitory concentration (MIC) and minimal bactericidal concentration (MBC) were determined in Nutrient Broth (NB, Oxoid, Basingstoke, UK) medium by broth dilution method, according to the Clinical and Laboratory Standards Institute (CLSI).
# All the bacterial strains were individually grown for 24 h at 35 or 27 °C for P. fluorescens, with shaking. After the incubation period, the cells were collected by centrifugation and re-suspended in sterile NB to obtain a stock culture of 10^9 CFU/mL. […]
# (§8) Tubes were incubated at 35 or 27 °C in an orbital shaker and evaluated for the viable count of E. coli, P. fluorescens, and L. monocytogenes after 24 h by spread-plating 100 µL of each suspension on Nutrient Agar (NA, Oxoid, Basingstoke, UK) incubated for 24–48 h at 35 or 27 °C.
# (§9) In this study, MIC and MBC are expressed in both µg/mL and µM to make the comparison with the literature data easy. Each experiment was performed in triplicate.
# Listeria monocytogenes = assay: MIC/MBC by broth dilution, pure ILs; format: cell-based; details: 24 h
# Description: as §6, §7
# (§10) All the bacterial strains were individually grown for 24 h at 35 or 27 °C for P. fluorescens, with shaking. After the incubation period, the cells were collected by centrifugation and re-suspended in sterile NB to obtain a stock culture of 10^9 CFU/mL.
# (§11) Tubes containing 5 mL of NB with decreasing concentrations of ILs (1000, 500, 250, 125, 50, 25, 12.5, 5 and 0 µg/mL) were inoculated with each bacterial stock culture at a final concentration of 10^6 CFU/mL.
# as §8, §9
# Escherichia coli = assay: MIC/MBC by broth dilution, pure ILs; format: cell-based; details: 24 h
# Description: as §6, §7, §10, §11, §8, §9
# [1] = NI = no inhibition at IL maximum concentration used (1000 µM), read-out: MIC
# [2] = NI = no inhibition at IL maximum concentration used (1000 µM), read-out: MBC
Structure (SMILES),"IC50 (MCF7 cancer cells; Homo sapiens, n = 3) [mg/L]","IC50 (MCF7 cancer cells; Homo sapiens, n = 3, mean ± SD) [µM]","IC50 (HDF cells; Homo sapiens, n = 3) [µM]","IC50 (HDF cells; Homo sapiens, n = 3, mean ± SD) [mg/L]",MIC (Pseudomonas fluorescens; [1]) [µM],"MBC (Listeria monocytogenes; 10^6 CFU/mL, read-out: MBC) [mg/L]","MIC (Listeria monocytogenes; 10^6 CFU/mL, read-out: MIC) [mg/L]",MBC (Listeria monocytogenes; [2]) [µM],MIC (Listeria monocytogenes; [1]) [µM],"MBC (Escherichia coli; 10^6 CFU/mL, read-out: MBC) [mg/L]","MIC (Escherichia coli; 10^6 CFU/mL, read-out: MIC) [mg/L]",MBC (Escherichia coli; [2]) [µM],MIC (Escherichia coli; [1]) [µM],IC50 MCF7 (MCF7 cancer cells; n = 3) [mg/L],"IC50 (MCF7 cancer cells; n = 3, mean ± SD) [µM]",IC50 (HDF cells; n = 3) [µM],"IC50 HDF (HDF cells; n = 3, mean ± SD) [mg/L]",MBC (Pseudomonas fluorescens; [2]) [µM],MBC (Listeria monocytogenes; 10^6 CFU/mL) [mg/L],MIC (Listeria monocytogenes; 10^6 CFU/mL) [mg/L],further results
CCCCCCCCC[n+]1ccn(C)c1.F[B-](F)(F)F [C9mimBF4],> 14.8,> 50,17.4,5.14 ± 0.1,> 1000,148,148,500,500,296,296,1000,1000,,,,,,,,
CCCCCCCCCC[n+]1ccn(C)c1.COC(=O)c1cc(C(=O)OC)cc(S(=O)(=O)[O-])c1 [C10mimDMSIP],,,,,500,,,1000,250,,,500,250,5.42,10.9,11.2,5.56 ± 0.04,1000,496.62,124.16,MBC (Pseudomonas fluorescens; 10^6 CFU/mL): 496.62 mg/L; MIC (Pseudomonas fluorescens; 10^6 CFU/mL): 248.31 mg/L; MBC (Escherichia coli; 10^6 CFU/mL): 248.31 mg/L; MIC (Escherichia coli; 10^6 CFU/mL): 124.16 mg/L
"CCCCCCCCCCCCn1cc[n+](C)c1.F[B-](F)(F)F [C12mimBF4, 1-dodecyl-3-methylimidazolium tetrafluoroborate]",2.05,6.06,12.8,4.34 ± 0.01,50,16.9,8.46,50,25,84.6,16.9,250,50,,,,,125,,,"MBC (Pseudomonas fluorescens; 10^6 CFU/mL, read-out: MBC): 42.3 mg/L; MIC (Pseudomonas fluorescens; 10^6 CFU/mL, read-out: MIC): 16.9 mg/L"
"CCCCCCCCCCCCn1cc[n+](C)c1.COC(=O)c1cc(C(=O)OC)cc(S(=O)(=O)[O-])c1 [C12mimDMSIP, 1-dodecyl-3-methylimidazolium 1,3-dimethyl-5-sulfoisophthalate]",,,,,125,,,50,25,,,125,50,4.95,9.44,10.6,5.56 ± 0.04,500,26.24,13.12,MBC (Pseudomonas fluorescens; 10^6 CFU/mL): 262.33 mg/L; MIC (Pseudomonas fluorescens; 10^6 CFU/mL): 65.58 mg/L; MBC (Escherichia coli; 10^6 CFU/mL): 65.58 mg/L; MIC (Escherichia coli; 10^6 CFU/mL): 26.24 mg/L
CCCCCCCCCCCCCC[n+]1ccn(C)c1.F[B-](F)(F)F [C14mimBF4],4.41,12.1,10.3,3.78 ± 0.17,25,4.58,4.58,12.5,12.5,9.16,4.58,25,12.5,,,,,125,,,"MBC (Pseudomonas fluorescens; 10^6 CFU/mL, read-out: MBC): 45.8 mg/L; MIC (Pseudomonas fluorescens; 10^6 CFU/mL, read-out: MIC): 9.16 mg/L"
CCCCCCCCCCCCCC[n+]1ccn(C)c1.COC(=O)c1cc(C(=O)OC)cc(S(=O)(=O)[O-])c1 [C14mimDMSIP],,,,,50,,,125,50,,,50,25,2.91,5.22,10.1,5.56 ± 0.04,125,69.09,27.64,MBC (Pseudomonas fluorescens; 10^6 CFU/mL): 69.09 mg/L; MIC (Pseudomonas fluorescens; 10^6 CFU/mL): 27.64 mg/L; MBC (Escherichia coli; 10^6 CFU/mL): 27.64 mg/L; MIC (Escherichia coli; 10^6 CFU/mL): 13.82 mg/L
CCCCCCCCCCCCCCCC[n+]1ccn(C)c1.F[B-](F)(F)F [C16mimBF4],1.64,4.16,20.9,8.26 ± 0.03,125,98.6,19.7,250,50,49.3,9.86,125,25,,,,,250,,,"MBC (Pseudomonas fluorescens; 10^6 CFU/mL, read-out: MBC): 98.6 mg/L; MIC (Pseudomonas fluorescens; 10^6 CFU/mL, read-out: MIC): 49.3 mg/L"
CCCCCCCCCCCCCCCC[n+]1ccn(C)c1.COC(=O)c1cc(C(=O)OC)cc(S(=O)(=O)[O-])c1 [C16mimDMSIP],,,,,250,,,125,50,,,125,125,3.84,6.61,9.57,5.56 ± 0.04,250,72.60,29.04,MBC (Pseudomonas fluorescens; 10^6 CFU/mL): 145.19 mg/L; MIC (Pseudomonas fluorescens; 10^6 CFU/mL): 145.19 mg/L; MBC (Escherichia coli; 10^6 CFU/mL): 72.60 mg/L; MIC (Escherichia coli; 10^6 CFU/mL): 72.60 mg/L
CCCCCCCCCCCCCCCCCC[n+]1ccn(C)c1.F[B-](F)(F)F [C18mimBF4],1.95,4.61,10.8,4.57 ± 0.06,> 1000,422,211,1000,500,106,52.8,250,125,,,,,,,,
CCCCCCCCCCCCCCCCCC[n+]1ccn(C)c1.COC(=O)c1cc(C(=O)OC)cc(S(=O)(=O)[O-])c1 [C18mimDMSIP],,,,,,,,500,500,,,1000,1000,1.96,3.22,6.59,4.01 ± 0.14,,304.4,304.4,MBC (Escherichia coli; 10^6 CFU/mL): 608.83 mg/L; MIC (Escherichia coli; 10^6 CFU/mL): 608.83 mg/L
"COc1cccc2c1C(=O)c1c(O)c3c(c(O)c1C2=O)C[C@@](O)(C(=O)CO)C[C@@H]3O[C@H]1C[C@H](N)[C@H](O)[C@H](C)O1 [Doxorubicin, reference compound]",7.2,13.2,,,,,,,,,,,,,,,,,,,
